From PubChem BioAssay AID330 (DTP/NCI, 2004)
Several values for one entry are separate records, joined by “and”; a condition that tells them apart may be missing. Equal values may be shown once. Inconclusive results and toxic doses are left out.

Tested on: P388 leukemia ip, CD2F1 mice, survival T/C
Assay: NCI In Vivo Anticancer Drug Screen. Data for tumor model P388 Leukemia (intraperitoneal) in CD2F1 (CDF1) mice
Conditions: endpoint: median survival time, higher = longer survival
How it was run: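 Mice carrying the transplanted tumor received test compound or vehicle. Survival was recorded in each group, and the value is the treated-group measurement divided by that of the vehicle-treated control group.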

[1] = dose: 25.0 mg/kg/injection, schedule: Q01DX009 (ip), vehicle: saline with Tween-80
[2] = dose: 100.0 mg/kg/injection, schedule: Q01DX009 (ip), vehicle: saline with Tween-80
[3] = dose: 50.0 mg/kg/injection, schedule: Q01DX005 (ip), vehicle: Klucel (hydroxypropylcellulose) (HPC)
[4] = dose: 100.0 mg/kg/injection, schedule: Q01DX005 (ip), vehicle: Klucel (hydroxypropylcellulose) (HPC)
[5] = dose: 200.0 mg/kg/injection, schedule: Q01DX005 (ip), vehicle: Klucel (hydroxypropylcellulose) (HPC)

**Q.** Which results are given for Cc1cc2c(c(C(C)(C)C)c1)OC(=O)/C2=C1/C(=O)Oc2c1cc(C)cc2C(C)(C)C?
**A.** T/C (dose: 1.87 mg/kg/injection, schedule: Q01DX005 (ip), vehicle: Klucel (hydroxypropylcellulose) (HPC)): 112 % of control; T/C (dose: 3.75 mg/kg/injection, schedule: Q01DX005 (ip), vehicle: Klucel (hydroxypropylcellulose) (HPC)): 101 % of control; T/C (dose: 7.5 mg/kg/injection, schedule: Q01DX005 (ip), vehicle: Klucel (hydroxypropylcellulose) (HPC)): 94 % of control; T/C (dose: 60.0 mg/kg/injection, schedule: Q01DX005 (ip), vehicle: Klucel (hydroxypropylcellulose) (HPC)): 90 % of control

**Q.** How did the T/C [1] turn out when CCCCCN(CCCCC)c1nsc(Cl)n1 was run?
**A.** 108 % of control

**Q.** And the T/C (dose: 50.0 mg/kg/injection, schedule: Q01DX009 (ip), vehicle: saline with Tween-80)?
**A.** 103 % of control

**Q.** And the T/C [2]?
**A.** 100 % of control

**Q.** N#CC(c1ccc2c(c1)OCO2)N1CCCC1 (stereo not drawn) was tested. Which T/C (dose: 12.5 mg/kg/injection, schedule: Q01DX001 (ip), vehicle: Klucel (hydroxypropylcellulose) (HPC)) did it give?
**A.** 108 % of control

**Q.** What about the T/C (dose: 25.0 mg/kg/injection, schedule: Q01DX001 (ip), vehicle: Klucel (hydroxypropylcellulose) (HPC)) of the same compound?
**A.** 108 % of control

**Q.** And the T/C (dose: 100.0 mg/kg/injection, schedule: Q01DX001 (ip), vehicle: Klucel (hydroxypropylcellulose) (HPC))?
**A.** 100 % of control

**Q.** And the T/C (dose: 400.0 mg/kg/injection, schedule: Q01DX001 (ip), vehicle: Klucel (hydroxypropylcellulose) (HPC))?
**A.** 99 % of control

**Q.** O=C(/C=C/c1ccccc1)O[C@@H]1CC2CC1C[C@@H]2c1cnc[nH]1 (stereo partly drawn) was tested. Which T/C (dose: 25.0 mg/kg/injection, schedule: Q04DX002 (ip), vehicle: saline with Tween-80) did it give?
**A.** 98 % of control

**Q.** And the T/C (dose: 50.0 mg/kg/injection, schedule: Q04DX002 (ip), vehicle: saline with Tween-80)?
**A.** 100 % of control

**Q.** What about the T/C (dose: 100.0 mg/kg/injection, schedule: Q04DX002 (ip), vehicle: saline with Tween-80) of the same compound?
**A.** 99 % of control

**Q.** Which results are given for CCCCCN(CCCCC)C(C)C(=O)c1ccc(Cl)cc1 (stereo not drawn)?
**A.** T/C [3]: 100 % of control; T/C [4]: 100 % of control; T/C [5]: 100 % of control

**Q.** How did the T/C (dose: 50.0 mg/kg/injection, schedule: Q01DX005 (ip), vehicle: saline with Tween-80) turn out when O=COCC(C(=O)O)c1ccccc1 (stereo not drawn) was run?
**A.** 102 % of control

**Q.** What about the T/C (dose: 100.0 mg/kg/injection, schedule: Q01DX005 (ip), vehicle: saline with Tween-80) of the same compound?
**A.** 94 % of control

**Q.** What about the T/C (dose: 200.0 mg/kg/injection, schedule: Q01DX005 (ip), vehicle: saline with Tween-80) of the same compound?
**A.** 95 % of control

**Q.** What does the source list for COc1cc(N=Nc2ccc(N=Nc3ccc4cc(S(=O)(=O)O)cc(S(=O)(=O)O)c4c3)c(C)c2)c(C)cc1NC(=O)c1ccc(NC(=O)c2ccc(N)cc2)cc1?
**A.** T/C (dose: 25.0 mg/kg/injection, schedule: Q01DX005 (ip), vehicle: Klucel (hydroxypropylcellulose) (HPC)): 103 % of control and 108 % of control; T/C [3]: 107 % of control and 111 % of control and 117 % of control; T/C [4]: 103 % of control and 116 % of control; T/C [5]: 107 % of control and 112 % of control and 97 % of control

**Q.** How did the T/C (dose: 50.0 mg/kg/injection, schedule: Q01DX009 (ip), vehicle: Klucel (hydroxypropylcellulose) (HPC)) turn out when COCN1C(=O)CN=C(c2ccccc2)c2cc([N+](=O)[O-])ccc21 was run?
**A.** 100 % of control

**Q.** What about the T/C (dose: 100.0 mg/kg/injection, schedule: Q01DX009 (ip), vehicle: Klucel (hydroxypropylcellulose) (HPC)) of the same compound?
**A.** 101 % of control

**Q.** What about the T/C (dose: 200.0 mg/kg/injection, schedule: Q01DX009 (ip), vehicle: Klucel (hydroxypropylcellulose) (HPC)) of the same compound?
**A.** 98 % of control

**Q.** With NC(Cc1ccc(OC2c3ccccc3-c3ccccc32)cc1)C(=O)O (stereo not drawn) as the compound, how does the T/C (dose: 50.0 mg/kg/injection, schedule: Q01DX009 (ip), vehicle: saline) read?
**A.** 100 % of control

**Q.** What about the T/C (dose: 100.0 mg/kg/injection, schedule: Q01DX009 (ip), vehicle: saline) of the same compound?
**A.** 91 % of control

**Q.** And the T/C (dose: 200.0 mg/kg/injection, schedule: Q01DX009 (ip), vehicle: saline)?
**A.** 87 % of control

**Q.** Which results are given for O=S(=O)(CCl)OCCCl?
**A.** T/C [1]: 120 % of control; T/C (dose: 75.0 mg/kg/injection, schedule: Q01DX009 (ip), vehicle: saline with Tween-80): 170 % of control; T/C [2]: 218 % of control
